Test results published in US20220041606A1, “POSITIVE ALLOSTERIC MODULATORS OF THE MUSCARINIC ACETYLCHOLINE RECEPTOR M1” (Vanderbilt University, priority 2020, published 2022).

How the values were obtained:
[1] = target: T1, human mAChR M1 (Homo sapiens, UniProt P11229); test: mAChR M1 cell-based functional assay (calcium mobilization), PAM activity: increase in the EC20 acetylcholine response; details: CHO-K1 cells expressing hM1; potentiation of EC20 acetylcholine response
T1 construct: host or cells: CHO-K1 cells (ATCC), stably transfected using Lipofectamine2000
T1 sequence (P11229 1-460): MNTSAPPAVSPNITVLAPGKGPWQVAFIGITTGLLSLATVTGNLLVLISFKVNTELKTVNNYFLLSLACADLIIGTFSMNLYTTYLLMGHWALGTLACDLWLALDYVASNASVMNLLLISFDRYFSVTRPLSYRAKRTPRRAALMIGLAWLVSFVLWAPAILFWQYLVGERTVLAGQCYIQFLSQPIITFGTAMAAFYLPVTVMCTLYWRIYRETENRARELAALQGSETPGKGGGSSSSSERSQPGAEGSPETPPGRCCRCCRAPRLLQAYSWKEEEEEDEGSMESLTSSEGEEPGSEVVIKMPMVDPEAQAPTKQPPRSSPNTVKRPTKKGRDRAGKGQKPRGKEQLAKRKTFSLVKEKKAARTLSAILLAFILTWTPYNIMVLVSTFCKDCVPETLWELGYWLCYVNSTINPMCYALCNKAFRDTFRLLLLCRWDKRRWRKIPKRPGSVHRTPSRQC
In short: (§1)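 Fluorescence ratio calcium read-out (Fluo-4 AM, FDSS 6000) in human M1-expressing CHO-K1 cells. Agonist activity taken as concentration-dependent rise after compound addition; potentiation as enhancement of a subsequent EC20 acetylcholine challenge. Curves from 11-point threefold dilutions fitted by four-parameter logistic; Emax expressed versus acetylcholine maximum.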

[2] = target: T1, human mAChR M1; test: mAChR M1 cell-based functional assay (calcium mobilization), agonist activity upon compound addition; details: CHO-K1 cells expressing hM1; for EC50: compound alone, before acetylcholine addition; for Emax: relative to the maximum for acetylcholine
In short: as §1

Row | EC50 [1] | Emax [1] | EC50 [2] | Emax [2] | SMILES
1 | 0.57 µM | 25% | > 10 µM | < 5% | Cc1cc(-c2cc(F)c(Cn3cc(C(=O)N[C@H]4CCC[C@@H]4O)c4ncccc4c3=O)c(F)c2)ccn1 [Compound A38, 6-(2,6-difluoro-4-(2-methylpyridin-4-yl)benzyl)-N-((1S,2S)-2-hydroxycyclopentyl)-5-oxo-5,6-dihydro-1,6-naphthyridine-8-carboxamide]
2 | ≥ 10 µM | 41% | > 10 µM | < 5% | COc1cc(-c2cc(F)c(Cn3cc(C(=O)N[C@H]4CCOC[C@@H]4O)c4ncccc4c3=O)c(F)c2)ccc1Cl [Compound A39, 6-((4′-chloro-3,5-difluoro-3′-methoxy-[1,1′-biphenyl]-4-yl)methyl)-N-((3R,4S)-3-hydroxytetrahydro-2H-pyran-4-yl)-5-oxo-5,6-dihydro-1,6-naphthyridine-8-carboxamide]
3 | 0.64 µM | 51% | > 10 µM | < 5% | Cc1cncc(-c2cc(F)c(Cn3cc(C(=O)N[C@H]4CCCC[C@@H]4O)c4ncccc4c3=O)c(F)c2)c1 [Compound A43, 6-(2,6-difluoro-4-(5-methylpyridin-3-yl)benzyl)-N-((1S,2S)-2-hydroxycyclohexyl)-5-oxo-5,6-dihydro-1,6-naphthyridine-8-carboxamide]
4 | ≥ 10 µM | 26% | > 10 µM | < 5% | Cc1cncc(-c2cc(F)c(Cn3cc(C(=O)N[C@H]4CCC[C@@H]4O)c4ncccc4c3=O)c(F)c2)c1 [Compound A44, 6-(2,6-difluoro-4-(5-methylpyridin-3-yl)benzyl)-N-((1S,2S)-2-hydroxycyclopentyl)-5-oxo-5,6-dihydro-1,6-naphthyridine-8-carboxamide]
5 | 4.37 µM | 70% | > 10 µM | < 5% | Cn1nccc1-c1ccc(Cn2cc(C(=O)N[C@H]3CCOC[C@@H]3O)c3ncccc3c2=O)c(F)c1 [Compound A45, 6-(2-fluoro-4-(1-methyl-1H-pyrazol-5-yl)benzyl)-N-((3R,4S)-3-hydroxytetrahydro-2H-pyran-4-yl)-5-oxo-5,6-dihydro-1,6-naphthyridine-8-carboxamide]
6 | 1.13 µM | 41% | > 10 µM | < 5% | Cn1nccc1-c1ccc(Cn2cc(C(=O)N[C@H]3CCCC[C@@H]3O)c3ncccc3c2=O)c(F)c1 [Compound A46, 6-(2-fluoro-4-(1-methyl-1H-pyrazol-5-yl)benzyl)-N-((1S,2S)-2-hydroxycyclohexyl)-5-oxo-5,6-dihydro-1,6-naphthyridine-8-carboxamide]
7 | 1.09 µM | 57% | > 10 µM | < 5% | Cn1nccc1-c1cc(F)c(Cn2cc(C(=O)N[C@H]3CCOC[C@@H]3O)c3ncccc3c2=O)c(F)c1 [Compound A47, 6-(2,6-difluoro-4-(1-methyl-1H-pyrazol-5-yl)benzyl)-N-((3R,4S)-3-hydroxytetrahydro-2H-pyran-4-yl)-5-oxo-5,6-dihydro-1,6-naphthyridine-8-carboxamide]
8 | 0.66 µM | 38% | > 10 µM | < 5% | Cn1nccc1-c1cc(F)c(Cn2cc(C(=O)N[C@H]3CCCC[C@@H]3O)c3ncccc3c2=O)c(F)c1 [Compound A48, 6-(2,6-difluoro-4-(1-methyl-1H-pyrazol-5-yl)benzyl)-N-((1S,2S)-2-hydroxycyclohexyl)-5-oxo-5,6-dihydro-1,6-naphthyridine-8-carboxamide]
9 | 0.98 µM | 65% | > 10 µM | < 5% | O=C(N[C@H]1CCOC[C@@H]1O)c1cn(Cc2c(F)cc(-c3cncs3)cc2F)c(=O)c2cccnc12 [Compound A49, 6-(2,6-Difluoro-4-(thiazol-5-yl)benzyl)-N-((3R,4S)-3-hydroxytetrahydro-2H-pyran-4-yl)-5-oxo-5,6-dihydro-1,6-naphthyridine-8-carboxamide]
10 | 1.79 µM | 69% | > 10 µM | < 5% | O=C(N[C@H]1CCOC[C@@H]1O)c1cn(Cc2c(F)cc(-c3ccns3)cc2F)c(=O)c2cccnc12 [Compound A50, 6-(2,6-difluoro-4-(isothiazol-5-yl)benzyl)-N-((3R,4S)-3-hydroxytetrahydro-2H-pyran-4-yl)-5-oxo-5,6-dihydro-1,6-naphthyridine-8-carboxamide]
11 | 1.68 µM | 75% | > 10 µM | < 5% | Cc1ncc(-c2cc(F)c(Cn3cc(C(=O)N[C@H]4CCOC[C@@H]4O)c4ncccc4c3=O)c(F)c2)s1 [Compound A51, 6-(2,6-difluoro-4-(2-methylthiazol-5-yl)benzyl)-N-((3R,4S)-3-hydroxytetrahydro-2H-pyran-4-yl)-5-oxo-5,6-dihydro-1,6-naphthyridine-8-carboxamide]
12 | 0.4 µM | 64% | 4.36 µM | 50% | Cn1cc2c(-c3cc(F)c(Cn4cc(C(=O)N[C@H]5CCCC[C@@H]5O)c5nccnc5c4=O)c(F)c3)cccc2n1 [Compound A52, 6-(2,6-Difluoro-4-(2-methyl-2H-indazol-4-yl)benzyl)-N-((1S,2S)-2-hydroxycyclohexyl)-5-oxo-5,6-dihydropyrido[3,4-b]pyrazine-8-carboxamide]
13 | 9.64 µM | 48% | > 10 µM | < 5% | O=C(N[C@H]1CCCC[C@@H]1O)c1cn(Cc2ccc(-n3cccn3)cc2)c(=O)c2nccnc12 [Compound A53, 6-(4-(1H-pyrazol-1-yl)benzyl)-N-((1S,2S)-2-hydroxycyclohexyl)-5-oxo-5,6-dihydropyrido[3,4-b]pyrazine-8-carboxamide]
14 | 2.37 µM | 62% | > 10 µM | 26% | Cn1cc(-c2ccc(Cn3cc(C(=O)N[C@H]4CCCC[C@@H]4O)c4nccnc4c3=O)c(F)c2)cn1 [Compound A54, 6-(2-fluoro-4-(1-methyl-1H-pyrazol-4-yl)benzyl)-N-((1S,2S)-2-hydroxycyclohexyl)-5-oxo-5,6-dihydropyrido[3,4-b]pyrazine-8-carboxamide]
15 | 7.9 µM | 67% | > 10 µM | 12% | Cn1ccc(-c2ccc(Cn3cc(C(=O)N[C@H]4CCCC[C@@H]4O)c4nccnc4c3=O)c(F)c2)n1 [Compound A55, 6-(2-fluoro-4-(1-methyl-1H-pyrazol-3-yl)benzyl)-N-((1S,2S)-2-hydroxycyclohexyl)-5-oxo-5,6-dihydropyrido[3,4-b]pyrazine-8-carboxamide]
16 | ≥ 10 µM | 61% | > 10 µM | < 5% | O=C(N[C@H]1CCOC[C@@H]1O)c1cn(Cc2ccc(-n3cccn3)cc2)c(=O)c2nccnc12 [Compound A56, 6-(4-(1H-pyrazol-1-yl)benzyl)-N-((3R,4S)-3-hydroxytetrahydro-2H-pyran-4-yl)-5-oxo-5,6-dihydropyrido[3,4-b]pyrazine-8-carboxamide]
17 | 1.15 µM | 68% | > 10 µM | 25% | O=C(N[C@H]1CCOC[C@@H]1O)c1cn(Cc2ccc(-c3cscn3)cc2)c(=O)c2cccnc12 [Compound A57, N-((3R,4S)-3-hydroxytetrahydro-2H-pyran-4-yl)-5-oxo-6-(4-(thiazol-4-yl)benzyl)-5,6-dihydro-1,6-naphthyridine-8-carboxamide]
18 | 0.37 µM | 68% | 5.27 µM | 40% | Cn1cc(-c2ccc(Cn3cc(C(=O)N[C@H]4CCOC[C@@H]4O)c4ncccc4c3=O)cc2)cn1 [Compound A58, N-((3R,4S)-3-hydroxytetrahydro-2H-pyran-4-yl)-6-(4-(1-methyl-1H-pyrazol-4-yl)benzyl)-5-oxo-5,6-dihydro-1,6-naphthyridine-8-carboxamide]
19 | 0.42 µM | 45% | > 10 µM | < 5% | O=C(N[C@H]1CCCC[C@@H]1O)c1cn(Cc2ccc(-c3cscn3)cc2)c(=O)c2cccnc12 [Compound A59, N-((1S,2S)-2-hydroxycyclohexyl)-5-oxo-6-(4-(thiazol-4-yl)benzyl)-5,6-dihydro-1,6-naphthyridine-8-carboxamide]
20 | 0.61 µM | 34% | > 10 µM | < 5% | O=C(N[C@H]1CCCCC[C@@H]1O)c1cn(Cc2ccc(-c3cscn3)cc2)c(=O)c2cccnc12 [Compound A60, N-((1S,2S)-2-hydroxycycloheptyl)-5-oxo-6-(4-(thiazol-4-yl)benzyl)-5,6-dihydro-1,6-naphthyridine-8-carboxamide]
21 | ≥ 10 µM | 33% | > 10 µM | < 5% | O=C(N[C@H]1CCC[C@@H]1O)c1cn(Cc2ccc(-n3cccn3)cc2)c(=O)c2nccnc12 [Compound A61, 6-(4-(1H-pyrazol-1-yl)benzyl)-N-((1S,2S)-2-hydroxycyclopentyl)-5-oxo-5,6-dihydropyrido[3,4-b]pyrazine-8-carboxamide]
